Test results as given in ChEMBL document CHEMBL4482324, “Ash1l inhibitors and methods of treatment therewith” (2017).
pIC50: −log10 of the molar value.

target: Histone-lysine N-methyltransferase ASH1L (Homo sapiens, UniProt Q9NR48); assay: Inhibition of MOCR-fused ASH1L SET-BAH ( 2069 to 2833 amino acids) (unknown origin) expressed as in Escherichia coli BL21 (DE3) T1R cells using SAM and chicken mono/dinucleosomes incubated for 1 hr by scintillation counting assay

Row | SMILES | pIC50
1 | NC(=S)c1ccc(-c2ccc(O)cc2)s1 | < 4.00
2 | NC(=S)c1cccc(-c2cn(CCC(O)C(F)(F)F)c3cc(N)ccc23)c1 (centres undefined) | 4.00 to 4.70
3 | NC(=S)c1cc(F)cc(-c2ccc(O)cc2)c1 | < 4.00
4 | NC(=S)c1ccc(F)c(-c2ccc(O)cc2)c1 | < 4.00
5 | Cc1cc2c(-c3cccc(C(N)=S)c3)cccc2[nH]1 | < 4.00
6 | NC(=S)c1cccc(-c2cccc3c2ccn3CO)c1 | 4.00 to 4.70
7 | Cc1cc(-c2cccc(C(N)=S)c2)ccc1O | < 4.00
8 | CS(=O)(=O)N1CCC(n2cc(-c3cccc(C(N)=S)c3)c3cc(F)ccc32)CC1 | 4.00 to 4.70
9 | NC(=S)c1cccc(-c2cn(CC3OCCO3)c3cc(N)ccc23)c1 | 4.00 to 4.70
10 | Cc1cc(O)cc(C)c1-c1cccc(C(N)=S)c1 | < 4.00
11 | Cc1cc(-c2cccc(C(N)=S)c2)c(C)cc1O | < 4.00
12 | NC(=S)c1cccc(-c2cccc3[nH]ccc23)c1 | 4.00 to 4.70
13 | NC(=S)c1cc(-c2ccccc2)cs1 | < 4.00
14 | NC(=S)c1cccc(-c2cn(CCO)c3cc(N)ccc23)c1 | 4.00 to 4.70
15 | NC(=S)c1cc(O)cc(-c2cccc3[nH]ccc23)c1 | < 4.00
16 | CNc1ccc2c(-c3cccc(C(N)=S)c3)c[nH]c2c1 | 4.00 to 4.70
17 | COCc1cc2c(-c3cccc(C(N)=S)c3)ccc(O)c2[nH]1 | 4.00 to 4.70
18 | NC(=S)c1cccc(-c2cn(CCCC(F)(F)F)c3ccc(N)cc23)c1 | 4.00 to 4.70

Row | SMILES | pIC50
19 | NC(=S)c1cccc(-c2ccc(O)cc2)c1 | < 4.00
20 | NC(=S)c1cccc(-c2ccc(O)cc2)n1 | < 4.00
21 | COc1ccc(-c2cccc(C(N)=S)c2)cc1 | < 4.00
22 | NC(=S)c1cccc(-c2ccc(O)cc2)c1F | < 4.00
23 | NC(=O)C1CCN(Cc2ccc3c(-c4cccc(C(N)=S)c4)cn(CCCC(F)(F)F)c3c2)CC1 | 4.00 to 4.70
24 | NC(=S)c1cccc(-c2cn(CC(C(F)F)C(F)F)c3cc(N)ccc23)c1 | > 4.70
25 | NC(=S)c1cccc(-c2cn(Cc3cnc[nH]3)c3cc(CO)ccc23)c1 | > 4.70
26 | NC(=S)c1cccc(-c2cn(CC3CC3)c3cc(CO)ccc23)c1 | > 4.70
27 | NC(=S)c1cccc(-c2cccc3[nH]ncc23)n1 | < 4.00
28 | NC(=S)c1cccc(-c2ccc(O)c3[nH]ccc23)c1 | 4.00 to 4.70
29 | CCCOc1nnc(NCc2ccc3c(-c4cccc(C(N)=S)c4)cn(C4CCN(S(C)(=O)=O)CC4)c3c2)s1 | > 4.70
30 | CC(C)(C)OC(=O)Nc1nc(CC(=O)NCc2ccc3c(-c4cccc(C(N)=S)c4)cn(CCCC(F)(F)F)c3c2)cs1 | > 4.70
31 | NC(=S)c1cccc(-c2cccc3[nH]c(CNCc4ccccc4)cc23)c1 | < 4.00
32 | NC(=O)c1cc(-c2cn(CCC(F)F)c3cc(CO)ccc23)ccc1N | > 4.70
33 | CCC(O)c1ccc2c(-c3cccc(C(N)=S)c3)cn(CCC(F)F)c2c1 (centres undefined) | > 4.70
34 | NC(=S)c1cccc(-c2cn(CCCC(F)(F)F)c3cc(CN4CCOCC4)ccc23)c1 | 4.00 to 4.70
35 | CN1c2ccccc2CCc2ccc(C(N)=S)cc21 | < 4.00

Next, values leading:

Row | pIC50 | SMILES
36 | > 4.70 | NC(=S)c1cccc(-c2cn(CCCC(F)(F)F)c3cc(CNC(=O)c4cscn4)ccc23)c1
37 | > 4.70 | CS(=O)(=O)N1CCC(n2cc(-c3cccc(C(N)=S)c3)c3ccc(CNC(=O)CC4CCNC4)cc32)CC1 (centres undefined)
38 | > 4.70 | NC(=O)c1cccc(-c2cn(CCC(F)F)c3cc(CO)ccc23)c1
39 | > 4.70 | NC(=S)c1cccc(-c2cn(C3CCOCC3)c3cc(CNc4nnc(N)s4)ccc23)c1
40 | > 4.70 | NC(=S)c1cc(-c2cn(CCC(F)F)c3cc(CO)ccc23)c2[nH]cnc2c1
41 | > 4.70 | CS(=O)(=O)N1CCC(n2cc(-c3cccc(C(N)=S)c3)c3ccc(N)cc32)CC1
42 | > 4.70 | NC(=S)c1cccc(-c2cn(CC(CF)CF)c3cc(NC(=O)c4ncc[nH]4)ccc23)c1
43 | > 4.70 | NC(=S)c1cccc(-c2cc(CCC(F)F)c3[nH]ccc3c2)c1
44 | > 4.70 | NC(=S)c1cccc(-c2cn(CC3CC(O)C(O)C3)c3cc(CO)ccc23)c1 (centres undefined)
45 | > 4.70 | NC(=O)c1cccc(-c2cn(CC(CF)CF)c3cc(N)ccc23)c1
46 | > 4.70 | CCCS(=O)(=O)N1CCC(n2cc(-c3cccc(C(N)=S)c3)c3ccc(CNc4c[nH]c(C)n4)cc32)CC1
47 | > 4.70 | NC(=S)c1cccc(-c2cn(C3CCOCC3)c3cc(CNC(=O)Cc4c[nH]cn4)ccc23)c1
48 | > 4.70 | NC(=S)c1cccc(-n2cc(N3CCCCC3)c3cc(CO)ccc32)c1
49 | > 4.70 | NC(=S)c1cccc(-c2cn(CC(CF)CF)c3cc(NC(CO)CO)ccc23)c1
50 | > 4.70 | NC(=S)c1cccc(-c2cn(CCCC(F)(F)F)c3cc(NCC(F)(F)F)ccc23)c1
51 | > 4.70 | NC(=S)c1cccc(-c2cc(CCC(F)F)c3cc[nH]c3c2)c1
52 | > 4.70 | NC(=S)c1cccc(-c2cn(C3CNC3)c3cc(CO)ccc23)c1
53 | > 4.70 | NC(=S)c1cc(-c2cn(CC(CF)CF)c3cc(CO)ccc23)ccn1
54 | > 4.70 | NC(=S)c1cccc(-c2cn(CCC(F)F)c3cc(C(O)CO)ccc23)c1 (centres undefined)
55 | > 4.70 | NC(=S)c1cccc(-c2cn(C3CCN(S(=O)(=O)CCCNC(=O)c4ccc5c(c4)C(=O)OC54c5ccc(O)cc5Oc5cc(O)ccc54)CC3)c3cc(CNc4nnc(N)s4)ccc23)c1

Row | pIC50 | SMILES
56 | > 4.70 | NC(=S)c1cccc(-c2cn(Cc3ccc[nH]3)c3cc(CO)ccc23)c1
57 | > 4.70 | NC(=S)c1cccc(-c2cn(C3CCCCC3O)c3cc(CO)ccc23)c1 (centres undefined)
58 | > 4.70 | NC(=S)c1cccc(-c2cn(CC3CCC3)c3cc(CO)ccc23)c1
59 | > 4.70 | NC(=S)c1cccc(-c2cn(CC3(F)CC3)c3cc(CO)ccc23)c1
60 | > 4.70 | NC(=S)c1cccc(-c2cn(CC(CCF)CC(F)F)c3cc(N)ccc23)c1 (centres undefined)
61 | > 4.70 | CS(=O)(=O)N1CCC(n2cc(-c3cccc(C(N)=S)c3)c3ccc(Nc4nccs4)cc32)CC1
62 | > 4.70 | NC(=S)c1cccc(-c2cn(CCCC(F)(F)F)c3cc(CNS(=O)(=O)c4c[nH]cn4)ccc23)c1
63 | > 4.70 | NC(=S)c1cccc(-c2cn(C3CCN(S(=O)(=O)CCNC(=O)COc4cccc5c4C(=O)N(C4CCC(=O)NC4=O)C5=O)CC3)c3cc(CNc4nnc(N)s4)ccc23)c1 (centres undefined)
64 | > 4.70 | NC(=S)c1cccc(-c2cn(CC3C(F)(F)C3(F)F)c3cc(CO)ccc23)c1
65 | > 4.70 | NC(=S)c1ccc(F)c(-c2cn(CCCC(F)(F)F)c3cc(N)ccc23)c1
66 | > 4.70 | CS(=O)(=O)NCc1ccc2c(-c3cccc(C(N)=S)c3)cn(CCCC(F)(F)F)c2c1
67 | > 4.70 | CCCc1c[nH]c(CC(=O)NCc2ccc3c(-c4cccc(C(N)=S)c4)cn(C4CCN(S(C)(=O)=O)CC4)c3c2)c1
68 | > 4.70 | CCCS(=O)(=O)N1CCC(n2cc(-c3cccc(C(N)=S)c3)c3ccc(N)cc32)CC1
69 | > 4.70 | NC(=S)c1ccc(-c2cn(CCC(F)F)c3cc(CO)ccc23)[nH]1
70 | > 4.70 | NC(=S)c1cccc(-c2cn(C3CCNCC3)c3cc(N)ccc23)c1
71 | > 4.70 | NC(=S)c1cccc(-c2cn(C3CCN(S(=O)(=O)CCCNC(=O)c4ccc5c(c4)C(=O)OC54c5ccc(O)cc5Oc5cc(O)ccc54)CC3)c3cc(CNC(=O)Cc4c[nH]cn4)ccc23)c1
72 | > 4.70 | NC(=S)c1cccc(-c2cn(CCC(F)F)c3cc(N4CCOCC4)ccc23)c1
73 | > 4.70 | NC(=S)c1cccc(-c2cn(C3CCN(C(=O)CCCCc4cccc5c4C(=O)N(C4CCC(=O)NC4=O)C5=O)CC3)c3cc(CNc4nnc(N)s4)ccc23)c1 (centres undefined)
74 | > 4.70 | NC(=S)c1cccc(-c2cn(C3CCN(S(=O)(=O)C(F)(F)F)CC3)c3cc(CNC(=O)Cc4ccc[nH]4)ccc23)c1
